Values joined by “and” are separate entries in the source; they are usually repeats but may differ in a detail not shown here. Equal values may be shown once. Toxic doses and inconclusive results are not listed. The calls were made as follows: active = survival T/C of 150% or more; inactive = T/C below 125% in these data.
Test system: AK4 lymphoid leukemia ip, C3AKF1 mice, survival
Test: NCI In Vivo Anticancer Drug Screen. Data for tumor model AK4 Lymphoid Leukemia (intraperitoneal) in C3AKF1 (CHKRF1) mice
Conditions: endpoint: median survival time, higher = longer survival
Experimental: The antitumor activity of compounds was measured in mice bearing transplantable tumors. Survival or tumor size were measured and the results are expressed as the measurement made in the treated group (T) divided by the measurement made in the vehicle treated control group (C). The tumor model used in this assay is AK4 Lymphoid Leukemia (intraperitoneal) in C3AKF1 (CHKRF1) mice

[1] = dose: 2.0 mg/kg/injection, schedule: Q01DX010 (ip), vehicle: saline
[2] = dose: 4.0 mg/kg/injection, schedule: Q01DX010 (ip), vehicle: saline
[3] = dose: 62.5 micrograms/kg/injection, schedule: Q01DX010 (ip), vehicle: saline
[4] = dose: 125.0 micrograms/kg/injection, schedule: Q01DX010 (ip), vehicle: saline
[5] = dose: 250.0 micrograms/kg/injection, schedule: Q01DX010 (ip), vehicle: saline
[6] = dose: 2.5 mg/kg/injection, schedule: Q01DX010 (ip), vehicle: saline
[7] = dose: 5.0 mg/kg/injection, schedule: Q01DX010 (ip), vehicle: saline
[8] = dose: 10.0 mg/kg/injection, schedule: Q01DX010 (ip), vehicle: saline
[9] = dose: 20.0 mg/kg/injection, schedule: Q01DX010 (ip), vehicle: saline
[10] = dose: 8.0 mg/kg/injection, schedule: Q01DX010 (ip), vehicle: saline
[11] = dose: 16.0 mg/kg/injection, schedule: Q01DX010 (ip), vehicle: saline

Measured: T/C

CS(=O)(=O)OCCN(CCOS(C)(=O)=O)c1ccc(N=O)cc1
inactive: dose: 0.5 mg/kg/injection, schedule: Q01DX010 (ip), vehicle: saline 111 % of control | dose: 1.0 mg/kg/injection, schedule: Q01DX010 (ip), vehicle: saline 111 % of control | [1] 94 % of control | [2] 88 % of control | [3] 110 % of control | [4] 115 % of control | [5] 115 % of control | dose: 500.0 micrograms/kg/injection, schedule: Q01DX010 (ip), vehicle: saline 115 % of control

Nc1ncnc2c1ccn2C1OC(CO)C(O)C1O (configuration not stated)
inactive: dose: 156.0 micrograms/kg/injection, schedule: Q01DX010 (ip), vehicle: saline 106 % of control | dose: 313.0 micrograms/kg/injection, schedule: Q01DX010 (ip), vehicle: saline 112 % of control | dose: 625.0 micrograms/kg/injection, schedule: Q01DX010 (ip), vehicle: saline 112 % of control | dose: 1250.0 micrograms/kg/injection, schedule: Q01DX010 (ip), vehicle: saline 112 % of control

N#[N+]c1cnc([O-])[nH]c1=O
inactive: dose: 1.25 mg/kg/injection, schedule: Q01DX010 (ip), vehicle: saline 100 % of control | [6] 100 % of control | [7] 100 % of control | [8] 100 % of control

N#Cc1cn(C2OC(CO)C(O)C2O)c2ncnc(N)c12 (configuration not stated)
inactive: dose: 31.3 micrograms/kg/injection, schedule: Q01DX010 (ip), vehicle: saline 100 % of control | [3] 100 % of control | [4] 118 % of control | [5] 100 % of control

C[n+]1c2ccccc2nc2c(N)cc(N)cc21
inactive: dose: 12.0 mg/kg/injection, schedule: Q01DX010 (ip), vehicle: saline 106 % of control | dose: 18.0 mg/kg/injection, schedule: Q01DX010 (ip), vehicle: saline 106 % of control | dose: 27.0 mg/kg/injection, schedule: Q01DX010 (ip), vehicle: saline 100 % of control

S=P(N1CCOCC1)(N1CC1)N1CC1
inactive: [6] 94 % of control | [7] 105 % of control | [8] 100 % of control | [9] 94 % of control

CN(C)c1ccc(/C=C/c2ccnc3ccccc23)cc1
inactive: [7] 111 % of control | [8] 105 % of control | [9] 94 % of control | dose: 40.0 mg/kg/injection, schedule: Q01DX010 (ip), vehicle: saline 100 % of control

O=C(Nc1ccc(C2=NCCN2)cc1)c1cccc(C(=O)Nc2ccc(C3=NCCN3)cc2)c1
active: [11] 150 % of control and 165 % of control | dose: 32.0 mg/kg/injection, schedule: Q01DX010 (ip), vehicle: saline 205 % of control and 210 % of control | dose: 64.0 mg/kg/injection, schedule: Q01DX010 (ip), vehicle: saline 235 % of control and 245 % of control
inactive: [10] 115 % of control

CN(C)[C@@H]1C(=O)C(C(N)=O)=C(O)[C@@]2(O)C(=O)C3=C(O)c4c(O)cccc4C[C@H]3C[C@@H]12
inactive: dose: 7.5 mg/kg/injection, schedule: Q01DX010 (ip), vehicle: saline 100 % of control | dose: 15.0 mg/kg/injection, schedule: Q01DX010 (ip), vehicle: saline 100 % of control and 105 % of control | dose: 30.0 mg/kg/injection, schedule: Q01DX010 (ip), vehicle: saline 100 % of control | dose: 60.0 mg/kg/injection, schedule: Q01DX010 (ip), vehicle: saline 94 % of control

Nc1nc(=S)c2ncn(C3OC(CO)C(O)C3O)c2[nH]1 (configuration not stated)
inactive: [1] 117 % of control | [2] 111 % of control | [10] 117 % of control | [11] 94 % of control

CC(=O)O[C@]1(C(C)=O)CC[C@H]2[C@@H]3C[C@H](C)C4=CC(=O)C=C[C@]4(C)[C@@]3(F)[C@@H](O)C[C@@]21C
inactive: dose: 12.5 mg/kg/injection, schedule: Q01DX010 (sc), vehicle: steriod suspending solution 100 % of control | dose: 25.0 mg/kg/injection, schedule: Q01DX010 (sc), vehicle: steriod suspending solution 100 % of control | dose: 50.0 mg/kg/injection, schedule: Q01DX010 (sc), vehicle: steriod suspending solution 111 % of control | dose: 100.0 mg/kg/injection, schedule: Q01DX010 (sc), vehicle: steriod suspending solution 88 % of control and 100 % of control
